According to article PMC10383271:

Experiments:
[1] = target: T1, COX-1 (Ovis aries, UniProt P05979); assay: COX-1 inhibition, Cayman's COX Colorimetric Inhibitor Screening Assay Kit
T1 sequence (P05979 25-600): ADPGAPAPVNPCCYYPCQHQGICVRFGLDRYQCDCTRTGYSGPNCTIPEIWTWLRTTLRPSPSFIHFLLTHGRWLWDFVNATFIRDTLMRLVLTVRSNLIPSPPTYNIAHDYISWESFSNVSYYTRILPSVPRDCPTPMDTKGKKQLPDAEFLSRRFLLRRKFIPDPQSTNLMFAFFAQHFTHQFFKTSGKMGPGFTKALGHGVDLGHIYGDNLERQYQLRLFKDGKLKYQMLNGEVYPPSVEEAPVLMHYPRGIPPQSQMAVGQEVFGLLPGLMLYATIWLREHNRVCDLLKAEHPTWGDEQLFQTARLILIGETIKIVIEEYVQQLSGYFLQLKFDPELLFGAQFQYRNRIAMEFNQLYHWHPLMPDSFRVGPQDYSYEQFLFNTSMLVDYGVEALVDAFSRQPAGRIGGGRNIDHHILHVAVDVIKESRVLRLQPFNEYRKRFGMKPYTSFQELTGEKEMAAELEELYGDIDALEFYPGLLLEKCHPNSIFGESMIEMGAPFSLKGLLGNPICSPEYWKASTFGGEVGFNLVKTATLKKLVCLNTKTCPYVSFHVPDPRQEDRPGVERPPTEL

[2] = target: T2, 15-LOX (Glycine max, UniProt P08170); assay: 15-LOX inhibition, Cayman's Lipoxygenase Inhibitor Screening Assay Kit
T2 sequence (P08170 1-839): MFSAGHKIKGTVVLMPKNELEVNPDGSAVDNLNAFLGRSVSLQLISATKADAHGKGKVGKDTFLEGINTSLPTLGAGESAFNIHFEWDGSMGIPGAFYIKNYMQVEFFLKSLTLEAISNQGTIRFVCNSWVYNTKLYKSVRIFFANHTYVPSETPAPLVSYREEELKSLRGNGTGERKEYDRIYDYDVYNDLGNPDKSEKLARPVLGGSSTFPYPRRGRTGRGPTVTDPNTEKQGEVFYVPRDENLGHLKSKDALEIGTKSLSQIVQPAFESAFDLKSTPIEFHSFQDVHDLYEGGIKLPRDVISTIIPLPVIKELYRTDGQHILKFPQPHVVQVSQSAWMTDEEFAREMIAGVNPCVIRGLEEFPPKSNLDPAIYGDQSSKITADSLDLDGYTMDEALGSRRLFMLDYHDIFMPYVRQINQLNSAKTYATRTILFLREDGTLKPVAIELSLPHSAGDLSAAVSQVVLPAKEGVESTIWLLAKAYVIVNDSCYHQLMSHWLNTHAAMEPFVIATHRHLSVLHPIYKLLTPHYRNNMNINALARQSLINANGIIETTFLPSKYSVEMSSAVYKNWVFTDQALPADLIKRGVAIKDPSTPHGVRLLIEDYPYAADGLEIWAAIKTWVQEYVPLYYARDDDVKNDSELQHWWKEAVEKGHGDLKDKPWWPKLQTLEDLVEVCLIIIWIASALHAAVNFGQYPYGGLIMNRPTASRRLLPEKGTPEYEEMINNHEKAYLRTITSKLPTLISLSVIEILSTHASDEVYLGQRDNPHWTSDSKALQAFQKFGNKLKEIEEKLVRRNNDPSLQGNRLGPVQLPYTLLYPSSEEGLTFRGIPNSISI

[3] = system: normal human dermal fibroblasts (NHDF); assay: MTT assay, viability of NHDF cell culture (ISO 10993 part 5); type: cell-based; details: NHDF cell cultures, 24 h incubation; for IC50: Homo sapiens, MTT, mean (± SD), n = 5
Protocol: The viability of the normal human dermal fibroblasts (NHDF) cell culture after 24 h incubation with the tested compounds 5a-c-7a-c was assessed by carrying out the MTT assay. This test was performed according to ISO 10993 part 5, Appendix C. For all tested compounds, the IC50 values were calculated using four-parameter logistics. Normal human dermal fibroblasts (NHDF) were purchased from the American Type Culture Collection (ATCC) for cytotoxicity evaluation of the tested compounds. The cells were grown in Dulbecco's Modified Eagle Medium DMEM with […] glucose without phenol red supplemented with 10% FBS and 2 mM L-glutamine, and 25 μg/mL gentamicin. The NHDF cells were cultured under standard conditions (5% CO2, 37 °C, and 95% humidity) with evaluation morphology and confluence at least twice a week. For the assay, the cells were used only in a logarithmic growth phase, and the TrypLE solution was used for 2 min at 37 °C to detach cells. Then, the TrypLE solution was inactivated by adding a culture medium, and the suspension of cells was collected into a tube and centrifuged for 5 min at 1000 rpm. Then, the supernatant was removed, fresh medium was added, and the pellet was resuspended and calculated using the […] chamber. The suspension of cells was prepared to allow seeding 10,000 cells/well density and incubated for 24 h to regenerate in CO2-incubator. The tested compounds were dissolved in DMSO to a final concentration of 10 mM and stored at -20 °C. Before use, the compound solution was kept at room temperature until thawing, and then, samples with 3 different concentrations of compounds were prepared (100 μM, 50 μM, and 10 μM) for each compound. The tested concentrations of compounds were prepared in a culture medium. […] The evaluation of the cytotoxicity of the newly synthesized compounds was carried out in accordance with the ISO 10,993 part V standard by performing the MTT test. After seeding at a density of 10,000 cells per well and adhering overnight, the NHDF cells were treated with the test compounds for 24 h in a CO2 incubator. The supernatant was then removed, the cells were washed with PBS, a 1mg/mL solution of MTT dissolved in MEM was added, and the cultures were re-incubated for 2 h in a CO2 incubator. The medium was then removed, and for a further 30 min, the formazan crystals were dissolved in 100 μL of isopropanol. The absorbance was measured with a Varioskan Go microplate reader at a wavelength of 570 nm. […] For enzyme assays, the IC50 was calculated according to the procedure provided by the kit manufacturer. The significance was set at p < 0.05. Based on the tests performed, the test power was calculated to be greater than 80%.

[4] = target: T3, COX-2 (Homo sapiens, UniProt P35354); assay: COX-2 inhibition, Cayman's COX Colorimetric Inhibitor Screening Assay Kit; details: for Selectivity Index (SI): COX-2 IC50/COX-1 IC50
T3 sequence (P35354 18-604): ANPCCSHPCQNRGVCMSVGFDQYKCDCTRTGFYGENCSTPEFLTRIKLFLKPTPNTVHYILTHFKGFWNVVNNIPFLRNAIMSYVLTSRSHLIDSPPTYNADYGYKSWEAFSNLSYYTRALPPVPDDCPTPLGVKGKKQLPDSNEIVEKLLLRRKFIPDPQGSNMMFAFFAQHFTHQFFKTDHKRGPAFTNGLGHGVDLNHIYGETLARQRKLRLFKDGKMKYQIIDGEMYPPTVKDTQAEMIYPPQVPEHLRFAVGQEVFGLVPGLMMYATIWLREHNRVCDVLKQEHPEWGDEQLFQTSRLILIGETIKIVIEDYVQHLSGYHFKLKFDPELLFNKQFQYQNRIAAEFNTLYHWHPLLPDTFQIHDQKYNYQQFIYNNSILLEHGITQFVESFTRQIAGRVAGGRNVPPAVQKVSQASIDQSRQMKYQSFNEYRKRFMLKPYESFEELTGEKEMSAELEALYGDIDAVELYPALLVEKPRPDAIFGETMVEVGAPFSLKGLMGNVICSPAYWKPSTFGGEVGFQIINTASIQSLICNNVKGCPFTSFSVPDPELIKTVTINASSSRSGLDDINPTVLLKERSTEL

| SMILES | IC50 [1] [µM] | IC50 [2] [µM] | IC50 [3] [µM] | Cell Morphology in Culture [3] | melting point [°C] | IC50 [4] [µM] | Selectivity Index (SI) [4] | effect on COX-1 isoform (in words) ([1]; enzymatic assay) |
| --- | --- | --- | --- | --- | --- | --- | --- | --- |
| Cc1ccc(/C=N/NC(=O)COc2nn(C)c(=O)c3c(C)n(-c4ccccc4)c(C)c23)cc1 [Compound 7b, N-[(Z/E)-p-tolylmethyleneamino]-2-(3,5,7-trimethyl-4-oxo-6-phenyl-pyrrolo[3,4-d]pyridazin-1-yl)oxy-acetamide] | 91.5 ± 5.1 | 13.7 ± 0.07 | 181 ± 8.7 | Normal morphology of fibroblasts-elongated cells, single granular cells in 1 of 10 assessed fields of view. | 271 to 272 | 24.5 ± 2.1 | 0.27 |  |
| CCCCn1c(C)c2c(OCC(=O)N/N=C/c3ccc(C)cc3)nn(C)c(=O)c2c1C [Compound 7a, 2-(6-butyl-3,5,7-trimethyl-4-oxo-pyrrolo[3,4-d]pyridazin-1-yl)oxy-N-[(Z/E)-p-tolylmethyleneamino]acetamide] | 93.8 ± 4.2 | 15.3 ± 2.1 | 116 ± 3.6 | Cells with an elongated shape characteristic of fibroblasts, the granularities were observed in 3–5 fields of view from 10 analyzed fields. | 209 to 211 | 16.1 ± 1.8 | 0.17 |  |
| Cc1ccc(/C=N/NC(=O)COc2nn(C)c(=O)c3c(C)n(-c4cccc(Cl)c4)c(C)c23)cc1 [Compound 7c, 2-[6-(3-chlorophenyl)-3,5,7-trimethyl-4-oxo-pyrrolo[3,4-d]pyridazin-1-yl]oxy-N-[(Z/E)-p-tolylmethyleneamino]acetamide] |  | 13.3 ± 0.02 | 81.6 ± 5.1 | Cells with an elongated shape characteristic of fibroblasts, the granularities were observed in 3–5 fields of view from 10 analyzed fields. | 248 to 250 | 22.7 ± 2.5 |  | does not affect the COX-1 isoform |
| CCCCn1c(C)c2c(OCC(=O)N/N=C/c3ccccc3O)nn(C)c(=O)c2c1C [Compound 6a, 2-(6-butyl-3,5,7-trimethyl-4-oxo-pyrrolo[3,4-d]pyridazin-1-yl)oxy-N-[(Z/E)-(2-hydroxyphenyl)methyleneamino]acetamide] | 89.2 ± 4.1 | 13.6 ± 0.03 | 88.7 ± 4.1 | Cells with an elongated shape characteristic of fibroblasts, the granularities were observed in 3–5 fields of view from 10 analyzed fields. | 225 to 227 | 16.4 ± 1.1 | 0.18 |  |
| Cc1c2c(OCC(=O)N/N=C/c3ccccc3O)nn(C)c(=O)c2c(C)n1-c1ccccc1 [Compound 6b, N-[(Z/E)-(2-hydroxyphenyl)methyleneamino]-2-(3,5,7-trimethyl-4-oxo-6-phenyl-pyrrolo[3,4-d]pyridazin-1-yl)oxy-acetamide] | 97.7 ± 6.8 | 13.7 ± 0.03 | 80.7 ± 1.9 | Cells with an elongated shape characteristic of fibroblasts, the granularities were observed in 3–5 fields of view from 10 analyzed fields. | 214 to 217 | 27.7 ± 2.5 | 0.28 |  |
| Cc1c2c(OCC(=O)N/N=C/c3ccccc3O)nn(C)c(=O)c2c(C)n1-c1cccc(Cl)c1 [Compound 6c, 2-[6-(3-chlorophenyl)-3,5,7-trimethyl-4-oxo-pyrrolo[3,4-d]pyridazin-1-yl]oxy-N-[(Z/E)-(2-hydroxyphenyl)methyleneamino]acetamide] | 76.8 ± 6 | 14.7 ± 0.02 | 211 ± 9.6 | Normal morphology of fibroblasts–elongated cells, single granular cells in 1 of 10 assessed fields of view. | 230 to 232 | 9.8 ± 3.1 | 0.13 |  |
